Data taken from patent publication US6693189B2, “Materials and method for treating or preventing pathogenic fungal infection” (Ariad Gene Therapeutics, Inc., priority 1996, dated 2004).
Read-outs that look alike come from different tables or passages of the source.

Tests used:
human FKBP12 = human FKBP12 (Homo sapiens, UniProt P62942); test: competitive fluorescence polarization (FP) FKBP binding assay; conditions: for fold loss in affinity (cf rapamycin) / fold loss in affinity (vs rapamycin): =IC50/IC50 of rapamycin; for fold loss in affinity (cf rapamycin): C7 rapalogs; for fold loss in affinity (vs rapamycin): C24 oximes
[1] = tested on: Candida albicans clinical isolates; test: broth macrodilution antifungal assay, C. albicans; format: cell-based; conditions: ratio of relative antifungal to relative immunosuppressive activity
[2] = tested on: Cryptococcus neoformans clinical isolates; test: broth macrodilution antifungal assay, Cryptococcus neoformans; format: cell-based; conditions: ratio of relative antifungal to relative immunosuppressive activity
[3] = tested on: Aspergillus fumigatus clinical isolates; test: broth macrodilution antifungal assay, Aspergillus fumigatus; format: cell-based; conditions: III = Asp fumigatus; ratio of relative antifungal to relative immunosuppressive activity
[4] = read-out: FKBP wt FP binding assay IC50, rapamycin C24 oximes, competition with fluoresceinated FK506 probe AP1491

human FKBP12, sequence (P62942 whole entry): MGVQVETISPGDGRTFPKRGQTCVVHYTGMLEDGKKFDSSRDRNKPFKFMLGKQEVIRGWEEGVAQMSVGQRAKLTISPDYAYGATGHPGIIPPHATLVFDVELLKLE

Row | fold loss in affinity (vs rapamycin) (human FKBP12) | IC50 (human FKBP12; [4]) | SMILES | fold loss in affinity (cf rapamycin) (human FKBP12) | further results
1 |  |  | COC1CC(CC(C)C2CC(=O)C(C)C=C(C)C(O)C(OC)C(=O)C(C)CC(C)C=CC=CC=C(C)C(c3ccc(C)s3)CC3CCC(C)C(O)(O3)C(=O)C(=O)N3CCCCC3C(=O)O2)CCC1O (stereo not drawn) [Compound 37] | 1.9 | 
2 |  |  | CCOC1C[C@@H]2CC[C@@H](C)[C@@](O)(O2)C(=O)C(=O)N2CCCC[C@H]2C(=O)O[C@H]([C@H](C)C[C@@H]2CC[C@@H](O)[C@H](OC)C2)CC(=O)[C@H](C)/C=C(\C)[C@@H](O)[C@@H](OC)C(=O)[C@H](C)C[C@H](C)/C=C/C=C/C=C/1C (stereo partly drawn) [Compound 27] | 1.1 | 
3 | 616 | 1420 nM | COC1CC2CCC(C)C(O)(O2)C(=O)C(=O)N2CCCCC2C(=O)OC(C(C)CC2CCC(O)C(OC)C2)CC(=NOCc2ccccc2)C(C)C=C(C)C(O)C(OC)C(=O)C(C)CC(C)C=CC=CC=C1C (stereo not drawn) [Compound 12, Rapamycin (E and Z)-24-(O-benzyloxime)] |  | 
4 | 1287 | 2960 nM | CCON=C1CC(C(C)CC2CCC(O)C(OC)C2)OC(=O)C2CCCCN2C(=O)C(=O)C2(O)OC(CCC2C)CC(OC)C(C)=CC=CC=CC(C)CC(C)C(=O)C(OC)C(O)C(C)=CC1C (stereo not drawn) [Compound 7, Rapamycin (E and Z)-24-(O-ethyloxime)] |  | 
5 |  |  | CCOC1C[C@@H]2CC[C@@H](C)[C@@](O)(O2)C(=O)C(=O)N2CCCC[C@H]2C(=O)O[C@H]([C@H](C)C[C@@H]2CC[C@@H](O)[C@H](OC)C2)CC(=O)[C@H](C)/C=C(\C)[C@@H](O)[C@@H](OC)C(=O)[C@H](C)C[C@H](C)/C=C/C=C/C=C/1C (stereo partly drawn) [Compound 28] | 1.6 | 
6 | 3627 |  | CO[C@H]1C[C@@H]2CC[C@@H](C)[C@@](O)(O2)C(=O)C(=O)N2CCCC[C@H]2C(=O)O[C@H]([C@H](C)C[C@@H]2CC[C@@H](O)[C@H](OC)C2)C/C(=N/OCc2ccccc2)[C@H](C)/C=C(\C)[C@@H](O)[C@@H](OC)C(=O)[C@H](C)C[C@H](C)/C=C/C=C/C=C/1C [Compound 11, Rapamycin (E and Z)-24-(O-benzyloxime)] |  | IC50 (human FKBP12): 8340 nM
7 |  |  | CO[C@H]1C[C@@H]2CC[C@@H](C)[C@@](O)(O2)C(=O)C(=O)N2CCCC[C@H]2C(=O)O[C@H]([C@H](C)C[C@@H]2CC[C@@H](O)[C@H](OC)C2)CC(=O)[C@H](C)/C=C(\C)[C@@H](O)[C@@H](OC)C(=O)[C@H](C)C[C@H](C)/C=C/C=C/C=C/1C [rapamycin, Rapamycin] |  | AF/IS I [1]: 1; AF/IS II [2]: 1; AF/IS III [3]: 1
8 | >13043 | > 30000 nM | COC1CC2CCC(C)C(O)(O2)C(=O)C(=O)N2CCCCC2C(=O)OC(C(C)CC2CCC(O)C(OC)C2)CC(=NOC(C)(C)C)C(C)C=C(C)C(O)C(OC)C(=O)C(C)CC(C)C=CC=CC=C1C (stereo not drawn) [Compound 19] |  | 
9 |  |  | COC1CC(CC(C)C2CC(=O)C(C)C=C(C)C(O)C(OC)C(=O)C(C)CC(C)C=CC=CC=C(C)C(c3ccc(C)s3)CC3CCC(C)C(O)(O3)C(=O)C(=O)N3CCCCC3C(=O)O2)CCC1O (stereo not drawn) [Compound 36] | 1.6 | 
